# Experimental data from patent US12503475B2 (Centessa Pharmaceuticals (UK) Limited, priority 2020, dated 2025).
# Like-named read-outs stand apart in the source and are kept apart here.
# Target: T1, human orexin type 2 receptor (hOX2R) (Homo sapiens, UniProt O43614)
# T1 construct: expressed in transfected cells
# T1 sequence (O43614 1-444): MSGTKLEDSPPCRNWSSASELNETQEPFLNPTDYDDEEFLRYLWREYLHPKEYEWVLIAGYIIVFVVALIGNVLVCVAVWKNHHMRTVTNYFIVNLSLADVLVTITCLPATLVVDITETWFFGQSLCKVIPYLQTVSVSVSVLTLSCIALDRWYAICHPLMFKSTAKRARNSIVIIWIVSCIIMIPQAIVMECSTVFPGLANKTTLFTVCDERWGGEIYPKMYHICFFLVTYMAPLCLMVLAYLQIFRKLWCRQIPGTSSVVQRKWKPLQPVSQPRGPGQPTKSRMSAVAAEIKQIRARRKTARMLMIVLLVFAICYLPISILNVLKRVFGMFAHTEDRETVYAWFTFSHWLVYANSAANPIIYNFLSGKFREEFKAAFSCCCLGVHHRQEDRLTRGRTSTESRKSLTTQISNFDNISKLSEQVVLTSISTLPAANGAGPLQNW
# Test: Measurement of orexin type 2 receptor agonist activity (FLIPR calcium fluorescence)
# Type: cell-based
# Conditions: for EC50: read-out: hOx2 pEC50 (converted); for Emax: CHO, read-out: hOx2 Emax (%)
# How it was run: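 Agonism was read as fluorescence in cells stably expressing human OX2R. E. is the response at 10 μM relative to orexin A as full agonist (100%).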
# [1] = CHO cells expressing hOX2R, FLIPR calcium fluorescence
EC50 [1] [nM],Emax [1] [%],SMILES,hOx2 Emax (%) [1],hOx2 pEC50 [1],Emax [%]
1 to 10,90 to 100,"O=C([C@H]1CCCO1)N1CC2(CC2)[C@H](NS(=O)(=O)CF)[C@@H]1Cc1cccc(-c2ccccc2)c1F [Compound 401, 1-fluoro-N-((6S,7S)-6-((2-fluoro-[1,1′-biphenyl]-3-yl)methyl)-5-((R)-tetrahydrofuran-2-carbonyl)-5-azaspiro[2.4]heptan-7-yl)methanesulfonamide]",–,–,–
1 to 10,90 to 100,"O=C([C@H]1CCO1)N1CC2(CC2)[C@H](NS(=O)(=O)C(F)F)[C@@H]1Cc1cc(F)cc(-c2cc(F)cc(F)c2)c1F [Compound 220, 1,1-difluoro-N-((6S,7S)-5-((R)-oxetane-2-carbonyl)-6-((2,3′,5,5′-tetrafluoro-[1,1′-biphenyl]-3-yl)methyl)-5-azaspiro[2.4]heptan-7-yl)methanesulfonamide]",–,–,–
1 to 10,90 to 100,"CS(=O)(=O)N[C@@H]1[C@H](Cc2cccc(-c3ccccc3)c2F)N(C(=O)NCCF)CC12CC2 [Compound 86, (6S,7S)-6-((2-fluoro-[1,1′-biphenyl]-3-yl)methyl)-N-(2-fluoroethyl)-7-(methylsulfonamido)-5-azaspiro[2.4]heptane-5-carboxamide]",–,–,–
0.0794 to 1,90 to 100,"O=C(N1CC2(CC2)C(NS(=O)(=O)CF)C1Cc1cccc(-c2ccccc2)c1F)C1(O)CCC1 (racemic) [Compound 108, 1-fluoro-N-(6-((2-fluoro-[1,1′-biphenyl]-3-yl)methyl)-5-(1-hydroxycyclobutane-1-carbonyl)-5-azaspiro[2.4]heptan-7-yl)methanesulfonamide]",–,–,–
0.0794 to 1,90 to 100,O=C(NCC(F)F)N1CC2(CC2)[C@H](NS(=O)(=O)CF)[C@@H]1Cc1cccc(-c2cc(F)cc(F)c2)c1F [Compound 411],–,–,–
0.0794 to 1,90 to 100,"O=C([C@H](O)CF)N1CC2(CC2)[C@H](NS(=O)(=O)CF)[C@@H]1Cc1cccc(-c2cc(F)cc(F)c2)c1F [Compound 391, 1-fluoro-N-((6S,7S)-5-((S)-3-fluoro-2-hydroxypropanoyl)-6-((2,3′,5′-trifluoro-[1,1′-biphenyl]-3-yl)methyl)-5-azaspiro[2.4]heptan-7-yl)methanesulfonamide]",–,–,–
1 to 10,90 to 100,"CC(C)(O)C(=O)N1CC2(CC2)[C@H](NS(C)(=O)=O)[C@@H]1Cc1cccc(-c2cc(F)cc(F)c2)c1F [Compound 34, N-((6S,7S)-5-(2-hydroxy-2-methylpropanoyl)-6-((2,3′,5′-trifluoro-[1,1′-biphenyl]-3-yl)methyl)-5-azaspiro[2.4]heptan-7-yl)methanesulfonamide]",–,–,–
10 to 100,90 to 100,"CCS(=O)(=O)NC1C(Cc2cc(F)cc(-c3ccccc3)c2F)N(C(=O)[C@H](O)CF)CC12CC2 (stereo in doubt) [Compound 356, N-((6S,7S)-6-((2,5-difluoro-[1,1′-biphenyl]-3-yl)methyl)-5-((S)-3-fluoro-2-hydroxypropanoyl)-5-azaspiro[2.4]heptan-7-yl)ethanesulfonamide]",–,–,–
0.0794 to 1,90 to 100,"CC(C)S(=O)(=O)N[C@@H]1[C@H](Cc2cc(F)cc(-c3cc(F)cc(F)c3)c2F)N(C(=O)[C@H]2CCO2)CC12CC2 [Compound 395, N-((6S,7S)-5-((R)-oxetane-2-carbonyl)-6-((2,3′,5,5′-tetrafluoro-[1,1′-biphenyl]-3-yl)methyl)-5-azaspiro[2.4]heptan-7-yl)propane-2-sulfonamide]",–,–,–
1 to 10,90 to 100,"O=C(NCC(F)(F)F)N1CC2(CC2)[C@H](NS(=O)(=O)C(F)F)[C@@H]1Cc1cc(F)cc(-c2ccccc2)c1F [Compound 383, (6S,7S)-6-((2,5-difluoro-[1,1′-biphenyl]-3-yl)methyl)-7-((difluoromethyl)sulfonamido)-N-(2,2,2-trifluoroethyl)-5-azaspiro[2.4]heptane-5-carboxamide]",–,–,–
10 to 100,90 to 100,"CO[C@H](C)CNC(=O)N1CC2(CC2)[C@H](NS(C)(=O)=O)[C@@H]1Cc1cccc(-c2ccccc2)c1F [Compound 324, (6S,7S)-6-((2-fluoro-[1,1′-biphenyl]-3-yl)methyl)-N-((R)-2-methoxypropyl)-7-(methylsulfonamido)-5-azaspiro[2.4]heptane-5-carboxamide]",–,–,–

# The next lines start with the compound.
SMILES,EC50 [1] [nM],Emax [1] [%],hOx2 Emax (%) [1],hOx2 pEC50 [1],Emax [%]
"CS(=O)(=O)NC1C(Cc2cccc(-c3ccccc3)c2)N(C(=O)C(F)F)CC12CC2 (racemic) [Compound 5, N-(6-([1,1′-biphenyl]-3-ylmethyl)-5-(2,2-difluoroacetyl)-5-azaspiro[2.4]heptan-7-yl)methanesulfonamide]",100 to 1000,90 to 100,–,–,–
CCS(=O)(=O)N[C@@H]1[C@H](Cc2cccc(-c3ccccc3)c2)N(C(=O)[C@H]2CCO2)CC12CC2 [Compound 41],1 to 10,90 to 100,–,–,–
"CS(=O)(=O)N[C@@H]1[C@H](Cc2cccc(-c3ccccc3)c2F)N(C(=O)NCC2COC2)CC12CC2 [Compound 334, (6S,7S)-6-((2-fluoro-[1,1′-biphenyl]-3-yl)methyl)-7-(methylsulfonamido)-N-(oxetan-3-ylmethyl)-5-azaspiro[2.4]heptane-5-carboxamide]",1 to 10,90 to 100,–,–,–
"CC(C)C(=O)N1CC2(CC2)C(NS(C)(=O)=O)C1Cc1cccc(-c2ccccc2)c1 (racemic) [Compound 15, N-(6-([1,1′-biphenyl]-3-ylmethyl)-5-isobutyryl-5-azaspiro[2.4]heptan-7-yl)methanesulfonamide]",10 to 100,90 to 100,–,–,–
"C[C@@H](F)S(=O)(=O)N[C@@H]1[C@H](Cc2cccc(-c3ccccc3)c2F)N(C(=O)[C@H]2CCO2)CC12CC2 [Compound 193, (S)-1-fluoro-N-((6S,7S)-6-((2-fluoro-[1,1′-biphenyl]-3-yl)methyl)-5-((R)-oxetane-2-carbonyl)-5-azaspiro[2.4]heptan-7-yl)ethane-1-sulfonamide]",1 to 10,90 to 100,–,–,–
"COC[C@@H]1CCN1C(=O)N1CC2(CC2)[C@H](NS(C)(=O)=O)[C@@H]1Cc1cccc(-c2ccccc2)c1F [Compound 102, N-((6S,7S)-6-((2-fluoro-[1,1′-biphenyl]-3-yl)methyl)-5-((S)-2-(methoxymethyl)azetidine-1-carbonyl)-5-azaspiro[2.4]heptan-7-yl)methanesulfonamide]",1 to 10,90 to 100,–,–,–
"COC1(C(=O)N2CC3(CC3)[C@H](NS(C)(=O)=O)[C@@H]2Cc2cccc(-c3ccccc3)c2)CC1 [Compound 60, N-((6S,7S)-6-([1,1′-biphenyl]-3-ylmethyl)-5-(1-methoxycyclopropane-1-carbonyl)-5-azaspiro[2.4]heptan-7-yl)methanesulfonamide]",10 to 100,80 to 90,–,–,–
"N#CC1(C(=O)N2CC3(CC3)[C@H](NS(=O)(=O)CF)[C@@H]2Cc2cccc(-c3ccccc3)c2F)CCC1 [Compound 181, N-((6S,7S)-5-(1-cyanocyclobutane-1-carbonyl)-6-((2-fluoro-[1,1′-biphenyl]-3-yl)methyl)-5-azaspiro[2.4]heptan-7-yl)-1-fluoromethanesulfonamide]",1 to 10,90 to 100,–,–,–
"CN(C)S(=O)(=O)N[C@@H]1[C@H](Cc2cc(F)cc(-c3ccccc3)c2F)N(C(=O)C2CCO2)CC12CC2 (stereo partly drawn) [Compound 347, N-((6S,7S)-6-((2,5-difluoro-[1,1′-biphenyl]-3-yl)methyl)-5-((R)-oxetane-2-carbonyl)-5-azaspiro[2.4]heptan-7-yl)-N,N-dimethylsulfuric diamide]",1 to 10,90 to 100,–,–,–
CCNC(=O)N1CC2(CC2)[C@H](NS(=O)(=O)CC)[C@@H]1Cc1cccc(-c2ccccc2)c1F [Compound 89],–,–,A (Emax ranging between 90 and 100),***** (pEC50 ranging between 9.0 and 10.1),–
"O=C([C@H]1CCO1)N1CC2(CC2)[C@H](NS(=O)(=O)C(F)F)[C@@H]1Cc1cccc(-c2cccc(F)c2)c1 [Compound 213, 1,1-difluoro-N-((6S,7S)-6-((3′-fluoro-[1,1′-biphenyl]-3-yl)methyl)-5-((R)-oxetane-2-carbonyl)-5-azaspiro[2.4]heptan-7-yl)methanesulfonamide]",1 to 10,90 to 100,–,–,–
"COC[C@@H](C)N(C)C(=O)N1CC2(CC2)[C@H](NS(C)(=O)=O)[C@@H]1Cc1cccc(-c2ccccc2)c1F [Compound 317, (6S,7S)-6-((2-fluoro-[1,1′-biphenyl]-3-yl)methyl)-N-((R)-1-methoxypropan-2-yl)-N-methyl-7-(methylsulfonamido)-5-azaspiro[2.4]heptane-5-carboxamide]",1 to 10,90 to 100,–,–,–
"CS(=O)(=O)N[C@@H]1[C@H](Cc2cccc(-c3ccccc3)c2F)N(C(=O)N2CC(F)(F)C2)CC12CC2 [Compound 87, N-((6S,7S)-5-(3,3-difluoroazetidine-1-carbonyl)-6-((2-fluoro-[1,1′-biphenyl]-3-yl)methyl)-5-azaspiro[2.4]heptan-7-yl)methanesulfonamide]",10 to 100,90 to 100,–,–,–
"C[C@@H](F)CNC(=O)N1CC2(CC2)[C@H](NS(=O)(=O)CF)[C@@H]1Cc1cccc(-c2ccccc2)c1F [Compound 206, (6S,7S)-6-((2-fluoro-[1,1′-biphenyl]-3-yl)methyl)-7-((fluoromethyl)sulfonamido)-N—((R)-2-fluoropropyl)-5-azaspiro[2.4]heptane-5-carboxamide]",1 to 10,–,–,–,90 to 100
